Reference: PubChem BioAssay (NCI)
Values joined by “and” are separate entries in the source; they are usually repeats but may differ in a detail not shown here. Equal entries are not always repeated.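 Interpolation was linear, between the two tested concentrations surrounding the appropriate level; five concentrations were tested over 48 hours in 96-well plates. GI50: concentration for 50% inhibition of growth. At the TGI there is no net growth.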

Assays:
Test in all cases: NCI tumour cell line growth inhibition, 48 h
KM12 colon = system: KM12 colon
TK-10 renal = system: TK-10 renal
SF-539 CNS = system: SF-539 CNS
SN12C renal = system: SN12C renal
BT-549 breast = system: BT-549 breast
OVCAR-4 ovarian = system: OVCAR-4 ovarian
HT29 colon = system: HT29 colon
MDA-MB-231 breast = system: MDA-MB-231 breast
NCI-H23 lung = system: NCI-H23 lung
HOP-62 NSCLC = system: HOP-62 NSCLC

## CCSc1nc(N)c2cnn(C)c2n1
KM12 colon
  GI50: 34.6 µM
  TGI: > 100 µM
TK-10 renal
  GI50: 34.1 µM
  TGI: > 100 µM
SF-539 CNS
  GI50: 36.1 µM
  TGI: > 100 µM
SN12C renal
  GI50: 48.9 µM
  TGI: > 100 µM
BT-549 breast
  GI50: 42.9 µM
  TGI: > 100 µM
OVCAR-4 ovarian
  GI50: 81.2 µM
  TGI: > 100 µM
HT29 colon
  GI50: 58.4 µM
  TGI: > 100 µM
MDA-MB-231 breast
  GI50: 25.1 µM
  TGI: 71 µM
NCI-H23 lung
  GI50: 41.5 µM
  TGI: > 100 µM

## O=C1/C(=C/c2ccccc2)CN(C(=O)OCC(Cl)(Cl)Cl)C/C1=C\c1ccccc1
KM12 colon
  TGI: 3.74 µM
TK-10 renal
  TGI: 17.1 µM
SF-539 CNS
  TGI: 14 µM
SN12C renal
  TGI: 3.56 µM
HT29 colon
  TGI: 3.63 µM
NCI-H23 lung
  TGI: 9.46 µM

## Cc1cccc(CC(C)(C)C)c1NC(=O)C(=O)C(C(=O)c1ccc2ccccc2c1)C1OC(=O)c2ccccc21 (stereo not drawn)
KM12 colon
  TGI: 30.3 µM
SF-539 CNS
  TGI: 11.8 µM
SN12C renal
  TGI: 36.9 µM
HOP-62 NSCLC
  TGI: 43.2 µM
OVCAR-4 ovarian
  TGI: > 100 µM
HT29 colon
  TGI: 51.6 µM
NCI-H23 lung
  TGI: 19.2 µM

## Cc1[nH]c(=O)nc(N/N=C/c2ccc(O)cc2)c1C(=O)Nc1ccc(Cl)cc1
KM12 colon
  TGI: > 100 µM
TK-10 renal
  TGI: > 100 µM
SF-539 CNS
  TGI: > 100 µM
SN12C renal
  TGI: > 100 µM
HOP-62 NSCLC
  TGI: > 100 µM
OVCAR-4 ovarian
  TGI: > 100 µM

## CCN1CC2(C)CC[C@@H](OC)C34[C@@H]2[C@H](OC(C)=O)C2(OCO[C@@]25C[C@H](OC)C2C[C@]3(O)[C@@H]5[C@H]2O)[C@H]14
KM12 colon
  TGI: > 100 µM
TK-10 renal
  TGI: > 100 µM
SF-539 CNS
  TGI: > 100 µM
SN12C renal
  TGI: > 100 µM
HOP-62 NSCLC
  TGI: > 100 µM
OVCAR-4 ovarian
  TGI: > 100 µM
HT29 colon
  TGI: > 100 µM
NCI-H23 lung
  TGI: > 100 µM

## COC(=O)C1=C(O)C(C(=O)OC)[C@@]2(O)[C@@H](C(=O)OC)C(c3ccc(OC(=O)C(CC(C)C)NC(C)=O)cc3)C[C@@H]1[C@@H]2C(=O)OC (stereo partly drawn)
KM12 colon
  GI50: 28.2 µM
  TGI: > 100 µM
TK-10 renal
  GI50: 57.4 µM
  TGI: > 100 µM
SN12C renal
  GI50: 30.2 µM
  TGI: > 100 µM
BT-549 breast
  GI50: 33.6 µM
  TGI: > 100 µM
HOP-62 NSCLC
  GI50: 31.2 µM
  TGI: > 100 µM
HT29 colon
  GI50: 62.2 µM
  TGI: > 100 µM
MDA-MB-231 breast
  GI50: 30 µM
  TGI: > 100 µM
NCI-H23 lung
  GI50: 36.9 µM
  TGI: > 100 µM

## COc1ccc(-n2nc(C)c3c2N(C)C2(C)C[C@@H]4C3(C)[C@@H]3CC4(C2)N(C)c2c(c(C)nn2-c2ccc(OC)cc2)[C@H]3C)cc1 (stereo partly drawn)
TK-10 renal
  GI50: 4.77 µM
  TGI: 21.3 µM
SF-539 CNS
  GI50: 6.49 µM
  TGI: > 100 µM
SN12C renal
  GI50: 8.06 µM
  TGI: > 100 µM
BT-549 breast
  GI50: 4.17 µM
  TGI: > 100 µM
HOP-62 NSCLC
  GI50: 3.1 µM
  TGI: 10.5 µM
OVCAR-4 ovarian
  GI50: 5.95 µM
  TGI: > 100 µM
HT29 colon
  GI50: 3.39 µM
  TGI: > 100 µM
MDA-MB-231 breast
  GI50: 6.35 µM
  TGI: 48.3 µM
NCI-H23 lung
  GI50: 18.7 µM
  TGI: 99.9 µM

## O=C1c2ccccc2C(=O)c2c1ccc1c3ccccc3n(Cc3ccccc3)c21
KM12 colon
  TGI: > 100 µM
SF-539 CNS
  TGI: > 100 µM
SN12C renal
  TGI: > 100 µM
HOP-62 NSCLC
  TGI: > 100 µM
OVCAR-4 ovarian
  TGI: > 100 µM
HT29 colon
  TGI: > 100 µM

## CCC1NCC(=O)c2c1[nH]c1ccccc21 (stereo not drawn)
KM12 colon
  TGI: > 100 µM
TK-10 renal
  TGI: > 100 µM
SF-539 CNS
  TGI: > 100 µM
SN12C renal
  TGI: > 100 µM
OVCAR-4 ovarian
  TGI: > 100 µM
HT29 colon
  TGI: > 100 µM
NCI-H23 lung
  TGI: > 100 µM

## CC(=O)Nc1ccc(C(=O)N2N=C(C)/C(=C/c3cccc(O)c3)C2=O)cc1
TK-10 renal
  TGI: > 100 µM
SF-539 CNS
  TGI: > 100 µM
SN12C renal
  TGI: > 100 µM
HOP-62 NSCLC
  TGI: > 100 µM
OVCAR-4 ovarian
  TGI: > 100 µM
HT29 colon
  TGI: > 100 µM
NCI-H23 lung
  TGI: > 100 µM

## COC(=O)C1CCC(=NC2c3ccccc3-c3ccccc32)N1 (stereo not drawn)
KM12 colon
  TGI: > 100 µM
TK-10 renal
  TGI: > 100 µM
SN12C renal
  TGI: > 100 µM
HOP-62 NSCLC
  TGI: > 100 µM
OVCAR-4 ovarian
  TGI: > 100 µM
HT29 colon
  TGI: > 100 µM
NCI-H23 lung
  TGI: > 100 µM

## COC(=O)C(=O)C(C(=O)C(=O)Nc1ccccc1C(N)=O)c1nc2ccc(C(=O)c3ccccc3)cc2[nH]c1=O (stereo not drawn)
KM12 colon
  TGI: > 100 µM
TK-10 renal
  TGI: > 100 µM
SF-539 CNS
  TGI: > 100 µM
SN12C renal
  TGI: > 100 µM
OVCAR-4 ovarian
  TGI: > 100 µM
HT29 colon
  TGI: > 100 µM
NCI-H23 lung
  TGI: > 100 µM

## C/C(=N\NC(=S)N1CCC(C2CCN(C(=S)N/N=C(\C)c3ccccn3)CC2)CC1)c1ccccn1
KM12 colon
  TGI: > 100 µM
TK-10 renal
  TGI: > 100 µM
SF-539 CNS
  TGI: > 100 µM
SN12C renal
  TGI: > 100 µM
HOP-62 NSCLC
  TGI: > 100 µM
OVCAR-4 ovarian
  TGI: > 100 µM
HT29 colon
  TGI: > 100 µM
NCI-H23 lung
  TGI: > 100 µM

## Clc1ccccc1C1=NN(c2ccccc2)C2c3cc(Br)ccc3OCC12 (stereo not drawn)
KM12 colon
  TGI: > 100 µM
TK-10 renal
  TGI: > 100 µM
SF-539 CNS
  TGI: > 100 µM
HOP-62 NSCLC
  TGI: > 100 µM
HT29 colon
  TGI: > 100 µM
NCI-H23 lung
  TGI: > 100 µM

## CCCCCCCCC(=O)NCCCNCCCNC(=O)CCCCCCCC
KM12 colon
  TGI: 3.48 µM
TK-10 renal
  TGI: 30.2 µM
SF-539 CNS
  TGI: 29.9 µM
SN12C renal
  TGI: 16.3 µM
HOP-62 NSCLC
  TGI: 27.9 µM
OVCAR-4 ovarian
  TGI: 29.9 µM
HT29 colon
  TGI: 7.5 µM
NCI-H23 lung
  TGI: 29.9 µM

## CCCCCCN1C(=O)CN=C1Nc1ccc2cc3ccc(NC4=NCC(=O)N4CCCCCC)cc3nc2c1
KM12 colon
  GI50: 1.47 µM
  TGI: 4.1 µM
TK-10 renal
  GI50: 1.56 µM
  TGI: 3.63 µM
SF-539 CNS
  GI50: 1.81 µM
  TGI: 3.63 µM
SN12C renal
  GI50: 1.75 µM
  TGI: 3.45 µM
BT-549 breast
  GI50: 3.46 µM
  TGI: 17.6 µM
OVCAR-4 ovarian
  GI50: 1.66 µM
  TGI: 4.01 µM
HT29 colon
  GI50: 1.81 µM
  TGI: 4.2 µM
MDA-MB-231 breast
  GI50: 1.94 µM
  TGI: 3.87 µM
NCI-H23 lung
  GI50: 1.96 µM
  TGI: 5.23 µM

## O=C1/C(=C/c2ccccc2)CN(C(=O)Oc2ccc([N+](=O)[O-])cc2)C/C1=C\c1ccccc1
KM12 colon
  GI50: 1.88 µM
  TGI: 2.89 µM and 5.49 µM
SN12C renal
  GI50: 3.45 µM
  TGI: 7.62 µM
OVCAR-4 ovarian
  GI50: 1.77 µM
  TGI: 7.87 µM and 4.15 µM
HT29 colon
  TGI: 4.36 µM and 4.04 µM
NCI-H23 lung
  GI50: 9.79 µM

## CCOC(=O)Cc1csc(NC(=O)C(OC(=O)c2ccc(N)cc2)c2ccccc2)n1 (stereo not drawn)
KM12 colon
  GI50: 37.5 µM
  TGI: > 100 µM
TK-10 renal
  GI50: 56.6 µM
  TGI: > 100 µM
SF-539 CNS
  GI50: 30.6 µM
  TGI: 87.4 µM
SN12C renal
  GI50: 46.6 µM
  TGI: > 100 µM
BT-549 breast
  GI50: 40.3 µM
  TGI: > 100 µM
HOP-62 NSCLC
  GI50: 52 µM
  TGI: > 100 µM
OVCAR-4 ovarian
  GI50: 32.7 µM
  TGI: > 100 µM
HT29 colon
  GI50: 39.9 µM
  TGI: > 100 µM
MDA-MB-231 breast
  GI50: 31.6 µM
  TGI: 97.1 µM

## O=C1c2cccc3cccc(c23)C(=O)N1CCCN1CCN(CCCN2C(=O)c3cccc4cccc(c34)C2=O)CC1
KM12 colon
  TGI: > 100 µM
TK-10 renal
  TGI: > 100 µM
SF-539 CNS
  TGI: > 100 µM
SN12C renal
  TGI: > 100 µM
HOP-62 NSCLC
  TGI: > 100 µM
OVCAR-4 ovarian
  TGI: > 100 µM
HT29 colon
  TGI: > 100 µM
NCI-H23 lung
  TGI: > 100 µM

## Cc1c(-c2coc(-c3ccc(Cl)cc3)n2)c(=O)n(-c2ccccc2)n1C
KM12 colon
  TGI: > 100 µM
TK-10 renal
  TGI: > 100 µM
SF-539 CNS
  TGI: > 100 µM
SN12C renal
  TGI: > 100 µM
HOP-62 NSCLC
  TGI: > 100 µM
OVCAR-4 ovarian
  TGI: > 100 µM
HT29 colon
  TGI: > 100 µM
NCI-H23 lung
  TGI: > 100 µM

## COc1ccccc1NC(=O)C(=O)C1C(=O)Nc2ccccc2S1=O (stereo not drawn)
KM12 colon
  TGI: > 100 µM
TK-10 renal
  TGI: > 100 µM
SF-539 CNS
  TGI: > 100 µM
SN12C renal
  TGI: > 100 µM
HOP-62 NSCLC
  TGI: > 100 µM
OVCAR-4 ovarian
  TGI: > 100 µM
HT29 colon
  TGI: > 100 µM
NCI-H23 lung
  TGI: > 100 µM
